From US6355799B1, “Substituted benzene compounds, process for their preparation, and herbicidal and defoliant compositions containing them” (ISK Americas Incorporated, priority 1997, dated 2002)

Tests used:
Format in all cases: in vivo
[1] = system: field corn (Zea mays L., var. Dekalb 535, CORN); test: Pre-emerge test, crop safety; conditions: pre-emerge, rated 14 days after application, 0 = no damage, 100 = complete death
Procedure, shortened: (§1)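 Visual ratings on a 0-100 scale (0 no damage, 100 all plants dead) were taken at 14 days after treatment. Rates of 15-1000 g ai/ha in acetone, 187 l/ha, were sprayed onto soil one day after planting (pre-emerge) or onto 2-3 leaf plants with 0.25% v/v surfactant (post-emerge).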

[2] = system: upland rice (Oryza sp., var. Tebonnet, RICE); test: Pre-emerge test, crop safety; conditions: pre-emerge, rated 14 days after application, 0 = no damage, 100 = complete death
Procedure, shortened: as §1

[3] = system: sicklepod (Cassia obtusifolia, CASOB); test: Pre-emerge test, greenhouse herbicide activity screening; conditions: pre-emerge, rated 14 days after application, 0 = no damage, 100 = complete death
Procedure, shortened: (§2)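 Compounds in acetone were track-sprayed at 15-1000 g ai/ha (187 l/ha) on sandy loam pots: pre-emerge one day after seeding, post-emerge at 2-3 leaf stage with 0.25% v/v non-ionic surfactant. Phytotoxicity was rated 14 days later on a 0 (no damage) to 100 (complete death) scale.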

[4] = system: common ragweed (Ambrosia artemisizfolia L., AMBEL); test: as above; conditions: pre-emerge, rated 14 days after application, 0 = no damage, 100 = complete death
Procedure, shortened: as §2

[5] = system: green foxtail (Setaria viridis, SETVI); test: as above; conditions: pre-emerge, rated 14 days after application, 0 = no damage, 100 = complete death
Procedure, shortened: as §2

[6] = system: johnsongrass (Sorghum halepense, SORHA); test: as above; conditions: pre-emerge, rated 14 days after application, 0 = no damage, 100 = complete death
Procedure, shortened: as §2

[7] = system: ivyleaf morningglory (Ipomoea hederacea, IPOHE); test: as above; conditions: pre-emerge, rated 14 days after application, 0 = no damage, 100 = complete death
Procedure, shortened: as §2

[8] = system: large crabgrass (Digitaria sanguinalis, DIGSA); test: as above; conditions: pre-emerge, rated 14 days after application, 0 = no damage, 100 = complete death
Procedure, shortened: as §2

[9] = system: barnyardgrass (Echinochloa crus-galli, ECHCG); test: as above; conditions: pre-emerge, rated 14 days after application, 0 = no damage, 100 = complete death
Procedure, shortened: as §2

[10] = system: lambsquarters (Chenopodium album, CHEAL); test: as above; conditions: pre-emerge, rated 14 days after application, 0 = no damage, 100 = complete death
Procedure, shortened: as §2

[11] = system: velvetleaf (Abutilon theophrasti, ABUTH); test: as above; conditions: pre-emerge, rated 14 days after application, 0 = no damage, 100 = complete death
Procedure, shortened: as §2

[12] = system: redroot pigweed (Amaranthus retroflexus, AMARE); test: as above; conditions: pre-emerge, rated 14 days after application, 0 = no damage, 100 = complete death
Procedure, shortened: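 Herbicidal damage is scored 0 (none) to 100 (complete plant death) two weeks after a simulated field spray. Rates span 15–1000 g ai/ha, delivered in acetone at 187 l/ha. For post-emergence treatments, plants have 2–3 leaves and the spray carries 0.25% v/v non-ionic surfactant.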

[13] = system: field corn (Zea mays L., var. Dekalb 535, CORN); test: Post-emerge test, crop safety; conditions: phytotoxicity rating 0-100 (0 no damage, 100 complete death), 14 days after application
Procedure, shortened: as §2

[14] = system: upland rice (Oryza sp., var. Tebonnet, RICE); test: Post-emerge test, crop safety; conditions: phytotoxicity rating 0-100 (0 no damage, 100 complete death), 14 days after application
Procedure, shortened: as §2

[15] = system: sicklepod (Cassia obtusifolia, CASOB); test: Post-emerge test, greenhouse herbicide activity screening; conditions: phytotoxicity rating 0-100 (0 no damage, 100 complete death), 14 days after application
Procedure, shortened: (§3)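 Applied at 15–1000 g ai/ha from acetone in 187 l/ha spray volume. Post-emergence applications included 0.25% v/v non-ionic surfactant and reached plants sown 8–21 days before. Pre-emergence applications were incorporated by surface watering. Efficacy or crop damage was rated on a 0–100 scale after 14 days.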

[16] = system: common ragweed (Ambrosia artemisizfolia L., AMBEL); test: as above; conditions: phytotoxicity rating 0-100 (0 no damage, 100 complete death), 14 days after application
Procedure, shortened: as §3

[17] = system: green foxtail (Setaria viridis, SETVI); test: as above; conditions: phytotoxicity rating 0-100 (0 no damage, 100 complete death), 14 days after application
Procedure, shortened: as §3

[18] = system: johnsongrass (Sorghum halepense, SORHA); test: as above; conditions: phytotoxicity rating 0-100 (0 no damage, 100 complete death), 14 days after application
Procedure, shortened: as §3

[19] = system: ivyleaf morningglory (Ipomoea hederacea, IPOHE); test: as above; conditions: phytotoxicity rating 0-100 (0 no damage, 100 complete death), 14 days after application
Procedure, shortened: as §3

[20] = system: large crabgrass (Digitaria sanguinalis, DIGSA); test: as above; conditions: phytotoxicity rating 0-100 (0 no damage, 100 complete death), 14 days after application
Procedure, shortened: as §3

[21] = system: barnyardgrass (Echinochloa crus-galli, ECHCG); test: as above; conditions: phytotoxicity rating 0-100 (0 no damage, 100 complete death), 14 days after application
Procedure, shortened: as §3

[22] = system: lambsquarters (Chenopodium album, CHEAL); test: as above; conditions: phytotoxicity rating 0-100 (0 no damage, 100 complete death), 14 days after application
Procedure, shortened: as §3

[23] = system: redroot pigweed (Amaranthus retroflexus, AMARE); test: as above; conditions: phytotoxicity rating 0-100 (0 no damage, 100 complete death), 14 days after application
Procedure, shortened: as §3

[24] = system: velvetleaf (Abutilon theophrasti, ABUTH); test: as above; conditions: phytotoxicity rating 0-100 (0 no damage, 100 complete death), 14 days after application
Procedure, shortened: as §3

With `Cn1c(C(F)(F)F)cc(=O)n(-c2c(F)cc(Cl)c(OC3CCCC3)c2N)c1=O` [Compound 1-21] the “Pre-emerge crop damage CORN (phytotoxicity rating, scale 0-100)” value ([1]; 63 g ai/ha) was 0, the “Pre-emerge crop damage CORN (phytotoxicity rating, scale 0-100)” value ([1]; 250 g ai/ha) was 0 and the “Pre-emerge crop damage RICE (phytotoxicity rating, scale 0-100)” value ([2]; 63 g ai/ha) was 0. For the same compound, the “Pre-emerge crop damage RICE (phytotoxicity rating, scale 0-100)” value ([2]; 250 g ai/ha) was 10, the “Pre-emerge Herbicidal Activity CASOB (phytotoxicity rating, scale 0-100)” value ([3]; 63 g ai/ha) was 0 and the “Pre-emerge Herbicidal Activity CASOB (phytotoxicity rating, scale 0-100)” value ([3]; 250 g ai/ha) was 0. For the same compound, the “Pre-emerge Herbicidal Activity AMBEL (phytotoxicity rating, scale 0-100)” value ([4]; 63 g ai/ha) was 0, the “Pre-emerge Herbicidal Activity AMBEL (phytotoxicity rating, scale 0-100)” value ([4]; 250 g ai/ha) was 100 and the “Pre-emerge Herbicidal Activity SETVI (phytotoxicity rating, scale 0-100)” value ([5]; 63 g ai/ha) was 95. For the same compound, the “Pre-emerge Herbicidal Activity SETVI (phytotoxicity rating, scale 0-100)” value ([5]; 250 g ai/ha) was 100, the “Pre-emerge Herbicidal Activity SORHA (phytotoxicity rating, scale 0-100)” value ([6]; 63 g ai/ha) was 0 and the “Pre-emerge Herbicidal Activity SORHA (phytotoxicity rating, scale 0-100)” value ([6]; 250 g ai/ha) was 90. The “Pre-emerge Herbicidal Activity IPOHE (phytotoxicity rating, scale 0-100)” value ([7]; 63 g ai/ha) was 0, the “Pre-emerge Herbicidal Activity IPOHE (phytotoxicity rating, scale 0-100)” value ([7]; 250 g ai/ha) was 40 and the “Pre-emerge Herbicidal Activity DIGSA (phytotoxicity rating, scale 0-100)” value ([8]; 63 g ai/ha) was 70. The “Pre-emerge Herbicidal Activity DIGSA (phytotoxicity rating, scale 0-100)” value ([8]; 250 g ai/ha) was 100, the “Pre-emerge Herbicidal Activity ECHCG (phytotoxicity rating, scale 0-100)” value ([9]; 63 g ai/ha) was 0 and the “Pre-emerge Herbicidal Activity ECHCG (phytotoxicity rating, scale 0-100)” value ([9]; 250 g ai/ha) was 95. For the same compound, the “Pre-emerge Herbicidal Activity CHEAL (phytotoxicity rating, scale 0-100)” value ([10]; 63 g ai/ha) was 100, the “Pre-emerge Herbicidal Activity CHEAL (phytotoxicity rating, scale 0-100)” value ([10]; 250 g ai/ha) was 100 and the “Pre-emerge Herbicidal Activity ABUTH (phytotoxicity rating, scale 0-100)” value ([11]; 63 g ai/ha) was 70. The “Pre-emerge Herbicidal Activity ABUTH (phytotoxicity rating, scale 0-100)” value ([11]; 250 g ai/ha) was 100, the “Pre-emerge Herbicidal Activity AMARE (phytotoxicity rating, scale 0-100)” value ([12]; 63 g ai/ha) was 98 and the “Pre-emerge Herbicidal Activity AMARE (phytotoxicity rating, scale 0-100)” value ([12]; 250 g ai/ha) was 100. The “Post-emerge Herbicidal Activity CORN (crop damage)” value ([13]; 63 g ai/ha) was 5, the “Post-emerge Herbicidal Activity CORN (crop damage)” value ([13]; 250 g ai/ha) was 5 and the “Post-emerge Herbicidal Activity RICE (crop damage)” value ([14]; 63 g ai/ha) was 10. For the same compound, the “Post-emerge Herbicidal Activity RICE (crop damage)” value ([14]; 250 g ai/ha) was 10, the “Post-emerge Herbicidal Activity CASOB” value ([15]; 63 g ai/ha) was 10 and the “Post-emerge Herbicidal Activity CASOB” value ([15]; 250 g ai/ha) was 30. The “Post-emerge Herbicidal Activity AMBEL” value ([16]; 63 g ai/ha) was 10, the “Post-emerge Herbicidal Activity AMBEL” value ([16]; 250 g ai/ha) was 30 and the “Post-emerge Herbicidal Activity SETVI” value ([17]; 63 g ai/ha) was 10. For the same compound, the “Post-emerge Herbicidal Activity SETVI” value ([17]; 250 g ai/ha) was 30, the “Post-emerge Herbicidal Activity SORHA” value ([18]; 63 g ai/ha) was 0 and the “Post-emerge Herbicidal Activity SORHA” value ([18]; 250 g ai/ha) was 0. The “Post-emerge Herbicidal Activity IPOHE” value ([19]; 63 g ai/ha) was 70, the “Post-emerge Herbicidal Activity IPOHE” value ([19]; 250 g ai/ha) was 90 and the “Post-emerge Herbicidal Activity DIGSA” value ([20]; 63 g ai/ha) was 0. The “Post-emerge Herbicidal Activity DIGSA” value ([20]; 250 g ai/ha) was 0, the “Post-emerge Herbicidal Activity ECHCG” value ([21]; 63 g ai/ha) was 0 and the “Post-emerge Herbicidal Activity ECHCG” value ([21]; 250 g ai/ha) was 0. The “Post-emerge Herbicidal Activity CHEAL” value ([22]; 63 g ai/ha) was 75, the “Post-emerge Herbicidal Activity CHEAL” value ([22]; 250 g ai/ha) was 95 and the “Post-emerge Herbicidal Activity AMARE” value ([23]; 63 g ai/ha) was 95. The “Post-emerge Herbicidal Activity AMARE” value ([23]; 250 g ai/ha) was 100, the “Post-emerge Herbicidal Activity ABUTH” value ([24]; 63 g ai/ha) was 85 and the “Post-emerge Herbicidal Activity ABUTH” value ([24]; 250 g ai/ha) was 100.
